Structures are written as SMILES.

In PubChem BioAssay AID1117361 (Southern Research Institute, 2015) one finds IC50 data, which are given here for 50 compounds.

In this assay the target is Protein Tat (Human immunodeficiency virus type 1 group M subtype B (isolate HXB2)) (UniProt P04608). The assay is described as follows: HIV-1 Tat–TAR interaction blockers – biochemical, fluorescence polarization, FAM-labeled TAR RNA, counter-screen for Vif-APOBEC3G degradation inhibitor project, dose response (AID 1117361). The following applies: Tat-TAR RNA binding. In general terms: In fluorescence polarisation assays a small probe gives low polarisation when free and higher when bound to something large.
Protein Tat (Human immunodeficiency virus type 1 group M subtype B (isolate HXB2)), sequence (P04608 whole entry, looked up): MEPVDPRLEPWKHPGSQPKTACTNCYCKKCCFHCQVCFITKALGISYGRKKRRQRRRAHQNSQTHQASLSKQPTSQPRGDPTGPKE
For `N#C/C(=C/c1ccc(Br)o1)C(N)=S`, the half-maximal inhibitory concentration (IC50) was 16 µM. Take `O=[N+]([O-])c1ccccc1S(=O)(=O)NC1CCCC1`: the 50% inhibitory concentration (IC50) was 45 µM.

As for `COc1cc(CC(=O)OCC(=O)Nc2cccc([N+](=O)[O-])c2)cc(OC)c1OC`, the IC50 was 26.6 µM. The figure for `O=C(NCCO)c1ccc2nc(-c3ccco3)c(-c3ccco3)nc2c1` is 7.34 µM; for `CC(=O)NN1C(=O)/C(=C/c2ccc(Br)o2)SC1=S` it is 36.2 µM; for `Cc1cccc(NC(=O)CNC(=O)c2cccc(-n3cccc3)c2)c1C` it is 63.3 µM.

As for `Oc1ccc(N=Cc2ccc(OCc3ccccc3)cc2)cc1`, the half-inhibitory concentration (IC50) is 47.5 µM. The figure for `NC(=O)Cn1c(=O)n(Cc2ccco2)c(=O)c2c3c(sc21)CCCCC3` is 15.5 µM; for `CC1CCCN(Cc2c(O)ccc3c2O/C(=C\c2ccco2)C3=O)C1` (stereo not given) it is 5.6 µM; for `CSc1nc(NCCOCCO)c2sc3nc(-c4ccco4)c4c(c3c2n1)CCC4` it is 9.42 µM. `CCN(C(=O)c1coc(=O)c(Br)c1)c1ccc2c(c1)OCO2`: the IC50 is 1.17 µM. With `CCOc1cccc(OCC)c2c(C)[n+](CC3CCCO3)c(C)c1-2` (stereo not given), the IC50 is 4.16 µM. For `Cc1cc(C)c(S(=O)(=O)N2CCCCC2)c(C)c1N(C)S(=O)(=O)c1ccc(Cl)cc1`, the half-inhibitory concentration (IC50) was 29 µM.

Consider `CCN(CC)c1ccc2c(c1)CCCN2`, for which the IC50 was 2.89 µM. `CCCCC1=CC2=C(c3ccco3)C(=O)C(C)(OC(=O)c3ccc(OC)cc3)C(=O)C2=CN1CCCCO` (stereo not given): the half-inhibitory concentration (IC50) was 29.3 µM. For `O=[N+]([O-])c1ccc(Sc2nc3ccccc3o2)c([N+](=O)[O-])c1`, the half-maximal inhibitory concentration (IC50) is 16.4 µM. Take `CCN1C[C@@H]2[C@@H]3C(=O)N(Cc4ccccc4)C(=O)[C@@H]3[C@](C)(C(=O)OC)N2C1=NC1CCCCC1`: the IC50 was 79.8 µM. The figure for `Cc1cc(/C=C2\C(=O)NC(=O)N(c3cccc(F)c3)C2=O)c(C)n1-c1cc(C(=O)O)cc(C(=O)O)c1` is 2.95 µM; for `O=C(O)C1Nc2c(Cl)cc(Cl)c(Cl)c2C2C=CCC12` (stereo not given) it is 45.9 µM.

As to `Nc1cccc2cc(S(=O)(=O)O)ccc12`, the concentration for half-maximal inhibition (IC50) is 67.9 µM. The figure for `CC1(C)Cc2nc3sc(C(=O)O)c(N)c3cc2CS1` is 28.3 µM. The result for `O=C(COC(=O)c1cc(-c2ccco2)nc2ccccc12)NCc1ccc2c(c1)OCO2` reads 18.2 µM; that for `Cc1ccc(Cn2c(=S)[nH]c3ccc(N4CCOCC4)cc3c2=O)o1`, 3.98 µM; that for `Cc1cccc(N(C(=O)Cn2nnc3ccccc32)C(C(=O)NCc2ccco2)c2ccncc2)c1C` (stereo not given), 27.6 µM. The figure for `COC(=O)C1=C(C)NC(=O)/C1=C\c1cc(C)n(-c2ccccc2C)c1C` is 28.7 µM. Turning to `CC(C)N1CCC2(CC1)C(C#N)=C(N)NC(S)=C2C#N`, the IC50 is 47.6 µM.

For the compound `Cc1cc(NC(=O)Cc2cccs2)no1`, the concentration for half-maximal inhibition (IC50) is 55.9 µM.

On to `O=C(Nc1cccc(C(F)(F)F)c1)c1ccc2nc(-c3ccco3)c(-c3ccco3)nc2c1`, for which the IC50 was 6.07 µM. Consider `Nc1cc(N)c(OCC(F)(F)F)cc1OCC(F)(F)F`, for which the IC50 was 11.4 µM. On to `O=C1CCC/C1=C/Nc1ccc2c(c1)OCO2`, for which the concentration for half-maximal inhibition (IC50) was 19.7 µM. `CN(CCc1ccccc1)C(=O)c1ccc(NC(=O)Cc2ccc(NC(=O)C3CCN(C(=O)CCc4ccccc4)CC3)cc2)cc1`: the concentration for half-maximal inhibition (IC50) was 44.3 µM. The figure for `C/C(=N\Nc1ccc([N+](=O)[O-])cc1[N+](=O)[O-])c1cc2c(ccc3ccccc32)oc1=O` is 15.6 µM; for `O=C(CCCN1C(=O)/C(=C\c2ccco2)SC1=S)Nc1ccc2ccccc2c1` it is 48.3 µM. The figure for `COc1ccc(NC(=O)N2c3ccc(OC)cc3C(C)=CC2(C)C)cc1` is 3.29 µM. The result for `CC(C)OC(=O)c1cccc(C(=O)O)n1` reads 1.92 µM; that for `CC1CCN(S(=O)(=O)c2ccc(C(=O)NCc3ccc4c(c3)OCO4)cc2)CC1`, 95.7 µM. In the case of `O=[N+]([O-])c1cc(/C=N\Nc2nccs2)ccc1O`, the IC50 is 5.68 µM. `CCCCN1C2CCCC1CC(NC(=O)c1ccc(OC)c(OC)c1)C2` (stereo not given): the IC50 was 78.3 µM. Turning to `CN(C(=S)Nc1cccnc1)c1ccc(O)cc1`, the 50% inhibitory concentration (IC50) was 27 µM. The result for `Cc1cccc(N/N=C/c2ccc(O)c(O)c2O)c1` reads 36 µM; that for `O=C(NCC1CCCO1)c1cc(-c2ccco2)nc2ccccc12` (stereo not given), 49.5 µM. The result for `O=C(NCCc1c[nH]c2ccccc12)c1ccc(S(=O)(=O)NCc2ccco2)cc1` reads 48.3 µM. The result for `Cc1ccc(NC(=O)CN(C)C(=O)c2cccc(-n3cccc3)c2)cc1` reads 38 µM; that for `CN(C)C(CNC(=O)c1cccnc1Sc1ccccc1)c1ccco1` (stereo not given), 68.7 µM; that for `CCn1c(C)nc2cc(C(=O)N/N=C/c3ccc(O)c(O)c3O)ccc21`, 15.3 µM. `Cc1ccc(/C=C/C(=O)Nc2cccc(S(=O)(=O)N3CCOCC3)c2)o1`: the IC50 was 89.1 µM. The figure for `COc1cccc(C2CC(c3ccccc3OC)n3nc(N)nc3N2)c1` (stereo not given) is 0.686 µM. The result for `Cc1cccn2c(=O)c3cc(C(=O)NCc4ccco4)c(=N)n(CCc4ccccc4)c3nc12` reads 11.8 µM. For the compound `Cc1ccc2cc(C(c3nnnn3Cc3ccccc3)N3CCc4ccccc43)c(=O)[nH]c2c1` (stereo not given), the IC50 is 46.4 µM.

On to `CCOC(=O)c1cnn2c(N)c(C#N)nnc12`, for which the 50% inhibitory concentration (IC50) is 45.7 µM.

The IC50 is the point on the concentration scale where inhibition reaches its midpoint.
